Patent publication US8530475B2, “Bridged aryl piperazines derivatives useful for the treatment of CNS, GI-urinary and reproductive disorders” (Janssen Pharmaceutica NV, priority 2006, dated 2013)
pIC50: −log10 of the molar value. Values joined by “and” are separate entries in the source; they are usually repeats but may differ in a detail not shown here. Equal values may be shown once. Read-outs that look alike come from different tables or passages of the source.

What was measured:
human 5-HTT = molecular target: T1, human 5-HTT (Homo sapiens, UniProt P31645); assay: Radioligand binding to 5-HTT (serotonin transporter, SERT), [3H]Paroxetine; details: membranes of HEK293 cells, [3H]Paroxetine 0.5 nM, <5 = not active at up to 10 μM; for IC50: read-out: h5HTT pIC50 (converted)
T1 construct: purchased Perkin-Elmer, USA; host or cells: HEK293 cells, stably transfected (membranes)
T1 sequence (P31645 whole entry): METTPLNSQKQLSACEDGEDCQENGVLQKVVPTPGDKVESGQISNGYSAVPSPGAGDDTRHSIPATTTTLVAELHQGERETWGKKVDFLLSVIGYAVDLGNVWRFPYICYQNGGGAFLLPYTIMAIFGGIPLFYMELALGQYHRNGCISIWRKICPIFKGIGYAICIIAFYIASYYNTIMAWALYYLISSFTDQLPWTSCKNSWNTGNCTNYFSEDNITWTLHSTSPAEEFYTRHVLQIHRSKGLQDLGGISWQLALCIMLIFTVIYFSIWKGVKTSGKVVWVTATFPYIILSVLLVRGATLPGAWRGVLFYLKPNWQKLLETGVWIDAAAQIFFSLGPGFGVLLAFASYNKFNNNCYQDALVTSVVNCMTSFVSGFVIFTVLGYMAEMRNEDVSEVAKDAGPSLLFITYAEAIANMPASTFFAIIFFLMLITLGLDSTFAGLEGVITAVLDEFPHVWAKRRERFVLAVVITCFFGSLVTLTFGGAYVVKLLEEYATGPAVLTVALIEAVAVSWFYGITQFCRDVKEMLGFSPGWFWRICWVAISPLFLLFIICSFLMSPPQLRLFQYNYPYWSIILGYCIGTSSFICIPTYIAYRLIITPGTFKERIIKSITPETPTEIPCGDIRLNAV
Protocol: For 5-HTT binding, frozen membranes of HEK293 cells stably-transfected with human 5-HTT (Perkin-Elmer, USA) were thawed on ice, briefly homogenised and resuspended in Tris-HCl buffer (50 mM, pH 7.4) supplemented with NaCl (120 mM) and KCl (5 mM) at a concentration of 50 μg protein per incubation mixture. The membrane suspension was added to the test compound together with [^3H]Paroxetine (0.5 nM) in a total volume of 250 μl and incubated (60 min, 25° C.). Non-specific binding was determined in the presence of imipramine (1 μM). Filtration was done over pre-soaked GF/B unifilters (0.01% PEI) and washed as above with the Tris-HCl salt buffer used for the incubation. Specific binding was calculated and sigmoidal curves were plotted by an internally-developed software program based on S-plus software. Ki values were calculated using the Cheng-Prusoff equation.

human 5HT1A receptor [1] = molecular target: T2, human 5HT1A receptor (Homo sapiens, UniProt P08908); assay: Radioligand binding to the 5-HT1A receptor, [3H]8-OH-DPAT; details: Example 77, membranes of HEK293 cells, [3H]8-OH-DPAT 0.5 nM, <5 = not active at up to 10 μM; for IC50: read-out: h5HT1A pIC50 (converted)
T2 construct: purchased Perkin Elmer; host or cells: HEK293 cells, stably transfected (membranes)
T2 sequence (P08908 1-422): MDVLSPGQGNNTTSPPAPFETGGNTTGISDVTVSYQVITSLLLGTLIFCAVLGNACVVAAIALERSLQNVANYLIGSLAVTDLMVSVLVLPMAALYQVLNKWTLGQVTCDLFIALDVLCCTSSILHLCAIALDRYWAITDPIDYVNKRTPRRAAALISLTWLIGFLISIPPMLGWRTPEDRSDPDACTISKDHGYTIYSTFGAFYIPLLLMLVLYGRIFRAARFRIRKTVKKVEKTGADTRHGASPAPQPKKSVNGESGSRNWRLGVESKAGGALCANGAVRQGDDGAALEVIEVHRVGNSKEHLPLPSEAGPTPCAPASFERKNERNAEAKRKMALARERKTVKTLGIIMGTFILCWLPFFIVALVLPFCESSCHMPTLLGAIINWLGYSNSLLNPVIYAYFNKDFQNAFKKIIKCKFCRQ
Protocol: Frozen membranes of HEK293 cells, stably-transfected with human 5-HT1A receptor (Perkin Elmer) were thawed on ice, briefly homogenised with an Ultra Turrax homogeniser and then suspended in Tris-HCl buffer (50 mM pH 7.7) supplemented with CaCl2 (4 mM) at an appropriate pre-determined protein concentration (5-10 μg protein per incubation mixture). Together with [^3H]8-OH-DPAT (0.5 nM final concentration; Perkin Elmer, USA), the membrane suspension was added to the test compound and incubated (30 min at 37° C.) in a total volume of 400 μl. Non-specific binding was determined in the presence of Spiroxatrine (1 μM). Free radioligand was separated from the radioligand-receptor complex by means of rapid vacuum filtration over GF/B unifilter plates with a Packard Harvester Filtration Unit. Unifilter plates were washed with ice cold Tris-HCl buffer (50 mM, pH 8.0) and then dried overnight. Bound counts were measured in a Topcount Scintillation Counter in the presence of Microscint O.

human 5HT1A receptor [2] = molecular target: T2, human 5HT1A receptor; assay: [35S]GTPγS binding for 5-HT1A receptor inhibition (antagonist mode); assay type: biochemical; details: Example 78, HEK293 membranes, antagonist mode with serotonin 100 nM, <5 = not active at up to 10 μM; for IC50: read-out: h5HT1A Antagonist pIC50 (converted)
Protocol: Compounds showing affinity at the 5-HT1A receptor were tested for functional agonism and antagonism in a [^35S]GTPγS (guanine triphosphate (non-hydrolysable, labelled with ^35S) binding assay on membranes of HEK293 cells permanently transfected with human 5HT1A receptor (Perkin Elmer, USA).
Frozen membranes were thawed, briefly homogenized and were diluted in incubation buffer, 100 mM NaCl, 0.3 mM MgCl2 and 10 μM guanine diphosphate (GDP), pH 7.4-7.5) supplemented with 10 μg/ml saponin. Assay mixtures contained 10 μg of membrane protein and test compound, buffer, or control agonist (serotonin, 10 μM). For the antagonistic assay, control agonist was present in all wells containing compound at a sub-maximal concentration (serotonin, 100 nM). After 20 minutes pre-incubation at 37° C., [^35S]GTPγS was added to a final concentration of 0.25 nM, briefly shaken and further incubated for another 20 minutes. Reactions were terminated by rapid vacuum filtration through GF/B unifilter plates using a Packard Harvester. Filters were washed three times with wash buffer (10 mM NaH2PO4, 10 mM Na2HPO4, pH 7.4), dried overnight and bound counts were measured in a Topcount Scintillation Counter in the presence of Microscint O. % Specific Binding was calculated and curves were plotted with help of in house software where pIC50 values were determined and Kb values were calculated.

SMILES | IC50 (human 5-HTT; Example 77) | IC50 (human 5HT1A receptor [1]) | IC50 (human 5HT1A receptor [2]) | pIC50 (human 5-HTT; h5HTT pIC50, Example 77) | h5HT1A Antagonist pIC50 (human 5HT1A receptor [2]) | h5HTT pIC50 (human 5-HTT; Example 77) | h5HT1A pIC50 (human 5HT1A receptor [1])
C1=C\C[C@H]2CN(c3ccc4ccccc4c3)[C@@H](C/1)CN2C1Cc2ccccc2C1 [compound 150] | 1910 nM | > 10000 nM |  |  |  |  | 
Cc1cc2c(OC[C@@H](O)CN3C[C@@H]4C/C=C\C[C@H]3CN4c3ccc4c(c3)OCCO4)cccc2[nH]1 [compound 159] | 759 nM | 10.7 nM | 0.0479 µM |  |  |  | 
O[C@H](COc1cccc2ncccc12)CN1C[C@@H]2C/C=C\C[C@H]1CN2c1ccc2ccccc2c1 [compound 160] | 63.1 nM | 355 nM | 0.851 µM |  |  |  | 
Cc1cc2c(OC[C@@H](O)CN3C[C@@H]4C/C=C\C[C@H]3CN4c3ccc4ccccc4c3)c(C)ccc2[nH]1 [compound 154] | 55 nM | 724 nM | > 10 µM |  |  |  | 
Cc1cc2c(OC[C@H](O)CN3CC4CC=CCC3CN4c3ccc4ccccc4c3)cccc2[nH]1 (stereo partly drawn) [compound 153] | 57.5 nM | 933 nM | > 10 µM |  |  |  | 
COc1cc2c(cc1OC)C1=NO[C@H](CN3C[C@@H]4C/C=C\C[C@H]3CN4c3ccc4ccccc4c3)C1CO2 (stereo partly drawn) [compound 141] | 724 nM | > 10000 nM |  |  |  |  | 
C1=C\C[C@H]2CN[C@@H](C/1)CN2c1cccc2ncccc12 [compound 137] | 676 nM | 2340 nM | > 10 µM |  |  |  | 
COC(=O)c1cc2c(OC[C@@H](O)CN3C[C@@H]4C/C=C\C[C@H]3CN4c3ccc4ccccc4c3)ccc(C)c2[nH]1 [compound 127] | 39.8 nM | 363 nM | > 10 µM |  |  |  | 
C1=C\C[C@H]2CN[C@@H](C/1)CN2c1cccc2ccccc12 [compound 119] |  | > 10000 nM |  | 7.15 |  |  | 
Cc1cc2c(OC[C@@H](O)CN3C[C@@H]4C/C=C\C[C@H]3CN4c3cccc4ncccc34)cccc2[nH]1 [compound 157] |  |  | 0.759 µM |  |  |  | 
Cc1cc2c(OC[C@@H](O)CN3C[C@@H]4C/C=C\C[C@H]3CN4c3ccc(Cl)c(Cl)c3)cccc2[nH]1 [compound 135] | 102 nM | 97.7 nM | 0.813 µM |  |  |  | 
COC(=O)c1cc2c(OC[C@@H](O)CN3C[C@@H]4C/C=C\C[C@H]3CN4c3ccc4ccccc4c3)cc(OC)cc2[nH]1 [compound 143] | 174 nM | 240 nM | > 10 µM |  |  |  | 
Cc1cc2c(OC[C@@H](O)CN3C[C@@H]4C/C=C\C[C@H]3CN4c3cccc4ncccc34)cccc2[nH]1 [ID No. 136] |  |  | 0.309 µM |  |  |  | 
Cc1cc2c(OC[C@@H](O)CN3CC4CC=CCC3CN4c3ccc4ccccc4c3)cccc2[nH]1 (stereo partly drawn) [compound 155] | 110 nM and 214 nM | 52.5 nM and 115 nM | > 10 µM and 6.31 µM |  |  |  | 
Cc1cc2c(OC[C@@H](O)CN3C[C@@H]4C/C=C\C[C@H]3CN4c3ccc4ccccc4c3)c(F)ccc2[nH]1 [compound 148] | 53.7 nM | 138 nM | > 10 µM |  |  |  | 
C#CCN1C[C@@H]2C/C=C\C[C@H]1CN2c1ccc2ccccc2c1 [compound 41] | 85.1 nM | > 10000 nM |  |  |  |  | 
Cc1cc2c(OC[C@@H](O)CN3C[C@@H]4C/C=C\C[C@H]3CN4c3cnc4ccccc4c3)cccc2[nH]1 [compound 158] | 251 nM | 126 nM | 1.15 µM |  |  |  | 
C1=C\C[C@H]2CN(CCNc3ccccn3)[C@@H](C/1)CN2c1ccc2ccccc2c1 [compound 142] | 102 nM | 9770 nM | > 10 µM |  |  |  | 
COC(=O)c1cc2c(OC[C@@H](O)CN3C[C@@H]4C/C=C\C[C@H]3CN4c3ccc4ccccc4c3)cccc2[nH]1 [compound 126] | 24 nM | 50.1 nM | > 10 µM |  |  |  | 
Cc1cc2c(OCCCN3C[C@@H]4C/C=C\C[C@H]3CN4c3ccc4ccccc4c3)cccc2[nH]1 [ID No. 138, 7-[3-(2-Methyl-1H-indol-4-yloxy)-propyl]-9-naphthalen-2-yl-7,9-diaza-bicyclo[4.2.2]dec-3-ene] | 28.2 nM | 282 nM | 11 µM |  |  |  | 
COC(=O)c1cc2c(OC[C@@H](O)CN3C[C@@H]4C/C=C\C[C@H]3CN4c3ccc4ccccc4c3)ccc(Cl)c2[nH]1 [compound 128] | 30.2 nM | 562 nM | > 10 µM |  |  |  | 
Cc1cc2c(OC[C@H](O)CN3C[C@H]4C/C=C\C[C@@H]3CN4c3ccc4ccccc4c3)cccc2[nH]1 [compound 55] |  |  |  |  | <5 | 6.86 | 6.88
COc1cc2c(cc1OC)C1=NO[C@@H](CN3C[C@@H]4C/C=C\C[C@H]3CN4c3ccc4ccccc4c3)C1CO2 (stereo partly drawn) [compound 140] | 741 nM | > 10000 nM |  |  |  |  | 
Cn1ccc2c(OC[C@@H](O)CN3C[C@H]4C/C=C\C[C@@H]3CN4c3ccc4ccccc4c3)cccc21 [compound 156] | 29.5 nM | > 10000 nM | > 10 µM |  |  |  | 
